In one assay the test system is primary cortical neurons. Nature of the assay: Neuronal toxicity of astrocyte conditioned medium (AlamarBlue and LDH assays). It is filed as cell-based, mouse. The note with it: cortical neurons 24 h with ACM, in words. On the procedure: Primary neuron, microglia and astrocyte cell cultures, and α-synuclein PFE's treatment: NOD2 or RIPK2 knockout mice was obtained from Jackson Laboratories (Bar Harbor, ME, USA). Primary cortical neurons were prepared from embryonic day 15.5 pups and cultured in Neurobasal medium (Gibco) supplemented with B-27, 0.5 mM L-glutamine, penicillin and streptomycin (Invitrogen, Grand Island, NY, USA) on tissue-culture plates coated with poly-L-lysine. The neurons were maintained by changing the medium every 3-4 days. Primary microglial and astrocyte cultures were performed as described previously (PMID: 26157004). Whole brains from mouse pups at postnatal day 1 (P1) were obtained. […] The total protein concentration was determined using Pierce BCA protein assay kit (Thermo Scientific), and 15 or 50 μg ml^-1 of total protein was added to mouse primary neurons for the neuronal cell death assay. […] Cell viability was determined by two methods: The AlamarBlue (Invitrogen) and LDH assay (Sigma). Cell death was assessed through AlamarBlue assay, according to the manufacturer's protocol. LDH activity in culture medium, representing relative cell viability and membrane integrity, was measured using the LDH assay kit spectrophotometrically, following the manufacturer's instructions. […]
A general note: The colour change of resazurin is a common sign of viable cells or microbes.

The test system of assay [1] is α-synuclein PFFs-induced PD mice. Briefly: α-synuclein PFFs-induced PD mouse model, IHC of ventral midbrain / SN. Type of assay: in vivo. On the procedure: Study rationale and objectives: The purpose of this study was to investigate the anti-PD efficacy of Gefitinib, RIPK2 inhibitor, in the α-synuclein PFF model PD. To this end, α-synuclein PFF were injected into the striatum of NOD2 KO or RIPK2 KO. α-synuclein PFFs-induced PD mice were orally treated with Gefitinib (Gef) (30 mg/kg, once daily) after 1 month striatal α-synuclein PFF injection for 5 months and tissues were analyzed.
Mouse strain for stereotaxic α-synuclein PFFs injection: NOD2 or RIPK2 KO mice was obtained from the Jackson Laboratories (Bar Harbor, ME). All housing, breeding, and procedures were performed according to the NIH Guide for the Care and Use of Experimental Animals and approved by the Johns Hopkins University Animal Care and Use Committee.
α-synuclein protein purification and PFF preparation: Recombinant mouse α-synuclein proteins were purified as previously described with an IPTG-independent inducible pRK172 vector system. Endotoxin was depleted by ToxinEraser endotoxin removal kit (Genscript, NJ, USA). α-synuclein PFFs (5 mg ml^−1) was prepared in PBS while stirring with a magnetic stirrer (1,000 rpm at 37° C.). After a week of incubation of the α-synuclein protein, aggregates were diluted to 0.1 mg ml^−1 with PBS and sonicated for 30 s (0.5 s pulse on/off) at 10% amplitude (Branson Digital sonifier, Danbury, CT, USA). α-synuclein PFFs was validated using atomic force microscopy and transmission electron microscopy, and the ability to induce phospho-serine 129 α-synuclein (p-α-synSer129) was confirmed using immunostaining. α-synuclein PFFs was stored at −80° C. until use.
Stereotaxic α-synuclein PFFs injection and Immunohistochemistry (IHC): For stereotaxic injection of α-synuclein PFFs, 3 months old NOD2 KO or RIPK2 KO male and female mice were anesthetized with xylazene and ketamine. An injection cannula (26.5 gauge) was applied stereotaxically into the striatum (STR) (mediolateral, 2.0 mm from bregma; anteroposterior, 0.2 mm; dorsoventral, 2.6 mm) unilaterally into the right hemisphere. The infusion of 2 μL α-synuclein PFFs ([…] in PBS) or the same volume of PBS was performed at a rate of 0.2 μL per min. After the final dose, the injection cannula was maintained in the STR for additional 5 min for a complete absorption of the α-synuclein PFFs or PBS then slowly removed from the mouse brain. The head skin was closed by suturing and wound healing and recovery were monitored following surgery. For IHC analysis, animals were perfused and fixed intracardially with ice-cold PBS followed by 4% paraformaldehyde at 3 months after striatal α-synuclein PFFs injections. The brain was removed and processed for immunohistochemistry. IHC for pS129-α-synuclein immunoreactivity was performed at 3 months after the unilateral striatal α-synuclein PFFs injections. Treatment of Gefitinib was accomplished after one month of unilateral striatal α-synuclein PFFs injection, once daily.

From US20240398824A1, “Inhibition Of Rip Kinases For Treating Neurodegenerative Disorders” (The Johns Hopkins University, priority 2018, published 2024) come the findings set out here.

As for `CC(C)(C)S(=O)(=O)c1ccc2nccc(Nc3n[nH]c4ccc(F)cc34)c2c1` [GSK583, 6-(tert-butylsulfonyl)-N-(5-fluoro-1H-indazol-3-yl) quinolin-4-amine], the “neuronal cell death induced by neurotoxic astrocytes” value in the assay with primary cortical neurons is “significantly prevented neuronal cell death”.

For `COc1cc2ncnc(Nc3ccc(F)c(Cl)c3)c2cc1OCCCN1CCOCC1` [Gefitinib], in assay [1] (Gefitinib 30 mg/kg oral once daily, PFF-injected mice, Veh + PFFs 32.14 ± 1.93, mean ± SEM, n = 5), the “# of p-αSyn positive signal in the SN” value is reported as 16.49 ± 2.01. Moreover, the “# of microglia in the SN” value in assay [1] (Gefitinib 30 mg/kg oral once daily, PFF-injected mice, Veh + PFFs 1138.72 ± 91.48, mean ± SEM, n = 5) was 409.15 ± 94.27. Moreover, the “microglia activation in the ventral midbrain” value in assay [1] (IHC, vs non-treated PD mice, in words) is recorded as “suppresses microglia activation”. Also, the “α-synuclein PFFs induced pathologies in mice” value in assay [1] (oral administration, in words) is given as “significantly rescues α-synuclein PFFs induced pathologies”. Besides, the “LB pathology (pS129-α-synuclein immunoreactivity)” value in assay [1] (ventral midbrain, IHC, vs non-treated PD mice, in words) is recorded as “significantly ameliorates LB pathology”. For the same molecule, in the assay with primary cortical neurons, the “neuronal cell death induced by neurotoxic astrocytes” value was “significantly prevented neuronal cell death”.
